Results: patent publication US20250282779A1, “SUBSTITUTED 5,6,7,8-TETRAHYDROPYRIDO[2,3-D]PYRIMIDINE-2,4-DIONES FOR TREATING CARDIAC DISEASES” (MYOKARDIA, INC., priority 2018, published 2025)

How the values were obtained:
bovine cardiac myosin [1] = target: T1, bovine cardiac myosin (Bos taurus (Bovine), UniProt Q9BE39); assay: Myosin inhibition assay (bcMF serum pCa 6 IC50), 10% human serum; assay type: biochemical; conditions: in the presence of 10% human serum
From the text: Myosin Inhibition Assay (bcMF Serum pCa 6 IC50 (μM))
Inhibition of the enzymatic activity of bovine cardiac myosin associated with the release of ADP (adenosine diphosphate) at the calcium concentrate that achieves a 50% activation of the bovine cardiac myofibril system in the presence of 10% human serum. The procedure was the same as that bovin cardiac myosin inhibition assay (bcMF pCa 6 IC50 (μM)) but with the addition of 10% human serum.

bovine cardiac myosin [2] = target: T1, bovine cardiac myosin; assay: Myosin inhibition assay (bcMF pCa 6 IC50); assay type: biochemical; conditions: bovine cardiac myofibrils, calcium giving 50% activation
Experimental: Myosin inhibition assay (bcMF pCa 6IC50 (μM))
Small molecule agents were assessed for their ability to inhibit the enzymatic activity of bovine cardiac myosin using a biochemical assay that couples the release of ADP (adenosine diphosphate) from cardiac myosin to an enzymatic coupling system consisting of pyruvate kinase and lactate dehydrogenase (PK/LDH) and monitoring the absorbance decrease of NADH (at 340 nm) as a function of time. PK converts ADP to ATP (adenosine triphosphate) by converting PEP (phosphoenolpyruvate) to pyruvate. Pyruvate is then converted to lactate by LDH by converting NADH (nicotinamide adenine dinucleotide) to NAD (oxidized nicotinamide adenine dinucleotide). The source of cardiac myosin was from bovine heart in the form of skinned myofibrils. Prior to testing small molecule agents, the bovine myofibrils were assessed for their calcium responsiveness and the calcium concentration that achieves a 50% activation of the myofibril system was chosen as the final condition for assessing the inhibitory activity of the small molecule agents. All enzymatic activity was measured in a buffered solution containing 12 mM PIPES (piperazine-N,N′-bis(2-ethanesulfonic acid), 2 mM magnesium chloride at pH 6.8 (PM12 buffer). Final assay conditions were 1 mg/mL of bovine cardiac myofibrils, 0.4 mM PK/LDH, 50 uM ATP, 0.1 mg/mL BSA (bovine serum albumin), 10 ppm antifoam, 2 mM BME, 0.5 mM NADH, and 1.5 mM PEP at the desired free calcium concentration required to achieve 50% activation of the myofibrils.
A dilution series of compound was created in DMSO such that the final desired concentration of compound would be achieved in a volume of 30 μL with a fixed DMSO concentration of 3.3% (v/v). Typically 1 μL of the dilution series were added to 384 well plate to achieve a 10 point dose response. Following the addition of 14 μL of a solution containing bovine cardiac myofibrils, PK/LDH and a solution of calcium (that achieved 50% activation), the enzymatic reaction was started with the addition of 15 μL of a solution containing ATP, PEP and NADH. The reaction progress was followed in a PerkinElmer Envision plate reader at ambient temperature using clear bottom plates. The plate reader was configured to read absorbance at 340 nm in kinetics mode for 15 minutes. Data were recorded as the slope of the absorbance response to time. The slopes of the absorbance response as a function of time were normalized to slopes on the plate containing DMSO. This normalized rate was then plotted as a function of small molecule concentration and the data was fitted to a four-parameter fit using EXCEL XLfit. The IC50 is the concentration at which fifty percent of the total response is inhibited.

T1 sequence (Q9BE39 whole entry): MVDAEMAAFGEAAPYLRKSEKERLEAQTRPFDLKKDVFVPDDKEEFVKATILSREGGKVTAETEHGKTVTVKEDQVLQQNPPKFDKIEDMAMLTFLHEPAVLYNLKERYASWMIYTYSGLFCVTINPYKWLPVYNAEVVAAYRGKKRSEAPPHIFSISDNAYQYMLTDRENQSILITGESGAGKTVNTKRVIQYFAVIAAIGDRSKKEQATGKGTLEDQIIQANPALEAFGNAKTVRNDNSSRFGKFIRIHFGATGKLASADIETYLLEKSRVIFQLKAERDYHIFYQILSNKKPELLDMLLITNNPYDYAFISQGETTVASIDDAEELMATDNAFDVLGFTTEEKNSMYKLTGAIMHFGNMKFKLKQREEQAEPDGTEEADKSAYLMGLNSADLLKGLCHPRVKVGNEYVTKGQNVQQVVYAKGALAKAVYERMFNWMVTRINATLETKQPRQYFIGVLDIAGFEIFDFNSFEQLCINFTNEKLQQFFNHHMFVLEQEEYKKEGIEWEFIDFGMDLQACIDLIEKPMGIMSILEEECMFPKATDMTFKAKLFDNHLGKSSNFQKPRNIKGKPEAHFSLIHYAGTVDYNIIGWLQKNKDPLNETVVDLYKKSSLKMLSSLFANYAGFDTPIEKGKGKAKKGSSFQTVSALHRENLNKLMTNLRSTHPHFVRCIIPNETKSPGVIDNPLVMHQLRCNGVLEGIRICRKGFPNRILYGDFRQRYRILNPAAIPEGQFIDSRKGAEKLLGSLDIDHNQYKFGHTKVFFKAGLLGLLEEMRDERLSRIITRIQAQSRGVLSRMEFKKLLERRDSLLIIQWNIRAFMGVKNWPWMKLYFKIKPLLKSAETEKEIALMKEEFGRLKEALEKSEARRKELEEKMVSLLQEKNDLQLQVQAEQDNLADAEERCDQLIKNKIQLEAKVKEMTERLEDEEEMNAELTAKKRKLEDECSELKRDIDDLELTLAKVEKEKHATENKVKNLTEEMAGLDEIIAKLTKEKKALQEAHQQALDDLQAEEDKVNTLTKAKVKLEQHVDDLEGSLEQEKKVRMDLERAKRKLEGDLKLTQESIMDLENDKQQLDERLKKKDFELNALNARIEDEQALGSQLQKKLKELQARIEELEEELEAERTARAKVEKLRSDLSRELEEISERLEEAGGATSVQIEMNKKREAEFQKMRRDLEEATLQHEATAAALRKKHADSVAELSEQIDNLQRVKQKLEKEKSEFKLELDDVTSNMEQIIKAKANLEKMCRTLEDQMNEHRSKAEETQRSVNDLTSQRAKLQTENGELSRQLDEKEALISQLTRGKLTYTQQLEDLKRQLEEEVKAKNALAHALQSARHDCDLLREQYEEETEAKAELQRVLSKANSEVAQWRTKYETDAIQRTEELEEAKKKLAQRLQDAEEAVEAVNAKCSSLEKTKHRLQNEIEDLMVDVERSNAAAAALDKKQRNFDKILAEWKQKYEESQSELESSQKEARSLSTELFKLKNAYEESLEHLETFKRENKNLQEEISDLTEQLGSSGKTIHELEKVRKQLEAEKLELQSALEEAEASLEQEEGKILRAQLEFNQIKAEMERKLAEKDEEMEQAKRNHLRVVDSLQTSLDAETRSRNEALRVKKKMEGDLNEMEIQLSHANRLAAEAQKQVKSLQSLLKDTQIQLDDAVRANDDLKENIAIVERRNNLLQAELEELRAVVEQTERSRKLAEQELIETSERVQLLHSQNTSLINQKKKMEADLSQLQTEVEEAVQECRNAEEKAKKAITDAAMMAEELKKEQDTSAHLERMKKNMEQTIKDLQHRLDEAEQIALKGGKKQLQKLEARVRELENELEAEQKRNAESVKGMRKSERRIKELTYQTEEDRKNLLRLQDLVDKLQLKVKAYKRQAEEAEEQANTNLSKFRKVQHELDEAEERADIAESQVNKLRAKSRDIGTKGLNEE
T1 sequence (P85100 whole entry partner): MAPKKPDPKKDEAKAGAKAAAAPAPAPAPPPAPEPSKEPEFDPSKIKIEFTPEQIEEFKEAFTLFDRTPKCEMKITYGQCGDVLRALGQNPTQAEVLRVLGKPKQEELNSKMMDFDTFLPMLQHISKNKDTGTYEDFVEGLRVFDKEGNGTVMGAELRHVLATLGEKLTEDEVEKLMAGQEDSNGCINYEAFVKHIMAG
T1 sequence (Q3SZE5 whole entry partner): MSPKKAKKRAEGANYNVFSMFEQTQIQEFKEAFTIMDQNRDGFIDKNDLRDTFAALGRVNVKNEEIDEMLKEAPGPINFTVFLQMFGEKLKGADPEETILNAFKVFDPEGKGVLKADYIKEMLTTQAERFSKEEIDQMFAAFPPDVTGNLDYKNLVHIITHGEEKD

Compound | IC50 (bovine cardiac myosin [1]) | IC50 (bovine cardiac myosin [2]; read-out: bcMF pCa 6 IC50) | IC50 (bovine cardiac myosin [2]; read-out: bcMF pCa_6 IC50 MEAN)
Cc1ccc(F)c([C@@H]2Nc3[nH]c(=O)n(C4CCOCC4)c(=O)c3C[C@@H]2F)c1 [Compound 3, (6S,7S)-6-fluoro-7-(2-fluoro-5-methylphenyl)-3-(tetrahydro-2H-pyran-4-yl)-5,6,7,8-tetrahydropyrido[2,3-d]pyrimidine-2, 4 (1H, 3H)-dione] | 1560 nM | 1110 nM | 1110 nM
O=c1[nH]c2c(c(=O)n1C1CCOCC1)CC(F)(F)[C@H](c1cccc(F)c1)N2 [Compound C-1, (S)-6,6-difluoro-7-(3-fluorophenyl)-3-(tetrahydro-2H-pyran-4-yl)-5,6,7,8-tetrahydropyrido[2,3-d]pyrimidine-2,4(1H,3H)-dione, reference compound] | 3490 nM | 1570 nM | 
